Measured values published in publication PMC11078746 (Nature, 2024).
“And” between values parts separate entries of the source, which are not always exact repeats. Equal values may be shown once.

Test: Mouse body weight, SW48 xenograft study with HRO761
Format: in vivo
Experimental: All animal studies were conducted in accordance with ethics and procedures covered by permit BS-2275 and BS-1975 issued by the Kantonales Veterinäramt Basel-Stadt and in strict adherence to guidelines of the Eidgenössisches Tierschutzgesetz and the Eidgenössische Tierschutzverordnung, Switzerland. All animal studies were approved by the internal ethics committee. All animals had access to food and water ad libitum and were identified with transponders. They were housed in a specific-pathogen-free facility in IVC racks under a 12 h–12 h light–dark cycle. To establish cell-line-derived xenograft models, 6–7-week-old female athymic nude (Crl:NU(NCr)-Foxn1^nu) or SCID-BEIGE (CB17.Cg-PrkdcscidLystbg-J/Crl) mice from Charles River were engrafted subcutaneously with 5 million tumour cells in HBSS (H6648, Sigma-Aldrich). For SNU-407, Lovo, IM95, RL95.2, Ishikawa and IGROV-1, the cells were concentrated in 50% Matrigel (354234, Corning). Patient-derived xenografts were induced and expanded by transplantation as previously described. […] For the efficacy experiment, mice were randomized into groups (n = 5–6) for a mean tumour size of 100–150 mm^3. […] Blood samples were collected on day 7 and 91. […] Tumour responses are reported with the measures of tumour volumes from the treatment start. […] Animals were randomized (n = 3) and tumour samples were collected at 0, 1, 4, 8 and 24 h on the first day and then collected 4 h after the last treatment on day 3, 8, 10, 14 (including a 24 h timepoint), 17 and 21. Tumours were excised, weighed, either frozen in liquid nitrogen and cryogenic dry pulverized with the CryoPrep system (model CP-02, Covaris) or processed to FFPE after fixation. […] On day 12, blood samples were collected for PK analysis. On the last day (3 h after the last treatment), tumours were excised, weighed, frozen in liquid nitrogen and cryogenic dry pulverized for PD analysis.

[1] = HRO761 20mg/kg, day 0 post 1st dose
[2] = HRO761 40mg/kg, day 0 post 1st dose
[3] = HRO761 60mg/kg, day 0 post 1st dose

## CCc1c(N2CCN(C(=O)c3ncnc(C)c3O)CC2)c(=O)n2nc(C3=CCOCC3)nc2n1CC(=O)Nc1ccc(C(F)(F)F)cc1Cl [HRO761]
[1]
  Delta BW change, individual mouse: 0%
  Mean DBW: 0.00%
HRO761 20mg/kg, day 3 post 1st dose
  Mean DBW: -0.35%
HRO761 20mg/kg, day 3 post 1st dose, 20 mg/kg
  Delta BW change, individual mouse: 1.24% and 0% (2×) and -0.78% and -2.23%
HRO761 20mg/kg, day 7 post 1st dose
  Mean DBW: 0.52%
HRO761 20mg/kg, day 7 post 1st dose, 20 mg/kg
  Delta BW change, individual mouse: 2.07% and 1.26% and 1.16% and -1.17% and -0.74%
HRO761 20mg/kg, day 10 post 1st dose
  Mean DBW: 1.67%
HRO761 20mg/kg, day 10 post 1st dose, 20 mg/kg
  Delta BW change, individual mouse: 3.32% and 6.28% and -1.54% and -1.56% and 1.86%
HRO761 20mg/kg, day 14 post 1st dose
  Mean DBW: 1.33%
HRO761 20mg/kg, day 14 post 1st dose, 20 mg/kg
  Delta BW change, individual mouse: 1.66% and 5.86% and -2.32% and -0.78% and 2.23%
HRO761 20mg/kg, day 17 post 1st dose
  Mean DBW: 2.56%
HRO761 20mg/kg, day 21 post 1st dose
  Mean DBW: 4.75%
HRO761 20mg/kg, day 24 post 1st dose
  Mean DBW: 2.97%
HRO761 20mg/kg, day 28 post 1st dose
  Mean DBW: 3.11%
HRO761 20mg/kg, day 31 post 1st dose
  Mean DBW: 2.34%
HRO761 20mg/kg, day 35 post 1st dose
  Mean DBW: 3.43%
HRO761 20mg/kg, day 38 post 1st dose
  Mean DBW: 2.26%
HRO761 20mg/kg, day 42 post 1st dose
  Mean DBW: 3.84%
HRO761 20mg/kg, day 45 post 1st dose
  Mean DBW: 3.81%
[2]
  Delta BW change, individual mouse: 0%
  Mean DBW: 0.00%
HRO761 40mg/kg, day 3 post 1st dose
  Mean DBW: -0.77%
HRO761 40mg/kg, day 3 post 1st dose, 40 mg/kg
  Delta BW change, individual mouse: -0.91% and 0.87% and -5.78% and -3.41% and 5.36%
HRO761 40mg/kg, day 7 post 1st dose
  Mean DBW: 2.11%
HRO761 40mg/kg, day 7 post 1st dose, 40 mg/kg
  Delta BW change, individual mouse: 3.18% and 5.63% and -3.25% and -1.14% and 6.13%
HRO761 40mg/kg, day 10 post 1st dose
  Mean DBW: 1.41%
HRO761 40mg/kg, day 10 post 1st dose, 40 mg/kg
  Delta BW change, individual mouse: 4.09% and 1.73% and -2.17% and 2.27% and 1.15%
HRO761 40mg/kg, day 14 post 1st dose
  Mean DBW: 4.08%
HRO761 40mg/kg, day 14 post 1st dose, 40 mg/kg
  Delta BW change, individual mouse: 5% and 7.36% and -0.36% and 4.17% and 4.21%
HRO761 40mg/kg, day 17 post 1st dose
  Mean DBW: 3.43%
HRO761 40mg/kg, day 21 post 1st dose
  Mean DBW: 5.66%
HRO761 40mg/kg, day 24 post 1st dose
  Mean DBW: 6.90%
HRO761 40mg/kg, day 28 post 1st dose
  Mean DBW: 6.44%
HRO761 40mg/kg, day 31 post 1st dose
  Mean DBW: 5.60%
HRO761 40mg/kg, day 35 post 1st dose
  Mean DBW: 6.99%
HRO761 40mg/kg, day 38 post 1st dose
  Mean DBW: 6.65%
HRO761 40mg/kg, day 42 post 1st dose
  Mean DBW: 6.89%
HRO761 40mg/kg, day 45 post 1st dose
  Mean DBW: 7.16%
HRO761 40mg/kg, day 49 post 1st dose
  Mean DBW: 8.78%
HRO761 40mg/kg, day 52 post 1st dose
  Mean DBW: 8.33%
HRO761 40mg/kg, day 56 post 1st dose
  Mean DBW: 7.63%
HRO761 40mg/kg, day 59 post 1st dose
  Mean DBW: 8.29%
HRO761 40mg/kg, day 63 post 1st dose
  Mean DBW: 9.98%
HRO761 40mg/kg, day 66 post 1st dose
  Mean DBW: 10.38%
HRO761 40mg/kg, day 70 post 1st dose
  Mean DBW: 8.92%
HRO761 40mg/kg, day 73 post 1st dose
  Mean DBW: 8.55%
HRO761 40mg/kg, day 76 post 1st dose
  Mean DBW: 11.97%
HRO761 40mg/kg, day 79 post 1st dose
  Mean DBW: 7.46%
HRO761 40mg/kg, day 83 post 1st dose
  Mean DBW: 7.38%
HRO761 40mg/kg, day 86 post 1st dose
  Mean DBW: 9.81%
[3]
  Delta BW change, individual mouse: 0%
  Mean DBW: 0.00%
HRO761 60mg/kg, day 3 post 1st dose
  Mean DBW: -1.52%
HRO761 60mg/kg, day 3 post 1st dose, 60 mg/kg
  Delta BW change, individual mouse: -2.98% and 1.63% and -3.35% and -4.6% and 1.71%
HRO761 60mg/kg, day 7 post 1st dose
  Mean DBW: -1.16%
HRO761 60mg/kg, day 7 post 1st dose, 60 mg/kg
  Delta BW change, individual mouse: -1.7% and -3.27% and 1.26% and -3.35% and 1.28%
HRO761 60mg/kg, day 10 post 1st dose
  Mean DBW: -1.23%
HRO761 60mg/kg, day 10 post 1st dose, 60 mg/kg
  Delta BW change, individual mouse: -0.43% and -6.94% and 7.11% and -5.02% and -0.85%
HRO761 60mg/kg, day 14 post 1st dose
  Mean DBW: 0.014%
HRO761 60mg/kg, day 14 post 1st dose, 60 mg/kg
  Delta BW change, individual mouse: -0.43% and -2.86% and 6.69% and -4.18% and 0.85%
HRO761 60mg/kg, day 17 post 1st dose
  Mean DBW: -0.23%
HRO761 60mg/kg, day 21 post 1st dose
  Mean DBW: 1.03%
